{
  "source": "patent US9499565B2",
  "about": "(BEIJING XINTIANYU TECHNOLOGY DEVELOPMENT CO., LTD., priority 2012, dated 2016)",
  "test": "Long-period stability test of powder injections",
  "assay_type": "physicochemical",
  "settings": "placed at room temperature for 28 months",
  "procedure": "All contents and purities in the present invention are determined using high performance liquid chromatography (HPLC), and chromatography conditions are: filler: octadecylsilane chemically bonded silica; mobile phase: 0.005 mol/L tetrabutyl ammonium hydroxide-acetonitrile (70:30) with pH of 5.0 adjusted by acetic acid; flow rate: 1.5 mL per minute; detection wavelength: 230 nm. The number of theoretical plates should not be less than 3500, as calculated according to sulbactam peak, the separation degree of […] peak and sulbactam peak should meet the requirements, and before official HPLC determination, the precision, accuracy, linearity and range of each specific to-be-quantified substance are also required to be subjected to methodology validation.",
  "data": [
    {"substance": "cocrystal of piperacillin sodium and sulbactam sodium [cocrystal A]", "values": [
      {"measurement": "content of piperacillin sodium", "value": "higher than 96.5%"},
      {"measurement": "content of sulbactam sodium", "value": "higher than 96.5%"},
      {"measurement": "total content of related substances", "value": "≤ 2", "unit": "%"}
    ]}
  ]
}
